Source: patent US11000033B2, “Ketone or oxime compound, and herbicide” (NISSAN CHEMICAL CORPORATION, priority 2014, dated 2021)

Experiments:
Type in all cases: in vivo
Cyperus difformis = assay: Test Example 3: herbicidal effect by foliage application, Wagner pot (symbol E); conditions: application herbicide amount 320 g/ha
Method in brief: (§1)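 Scoring took place 3 weeks after application, using fixed criteria. Plants had been raised from seed for 14 days at 25 to 30 °C in submerged alluvial soil before a diluted emulsion of the test compound was sprayed uniformly on the leaves.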

Monochoria vaginalis [1] = assay: Test Example 2: herbicidal activity, application during weed generation in submerged conditions (symbol C); conditions: Table 23; application herbicide amount 320 g/ha; grade 0-5 by criteria of Test Example 1
Method in brief: (§2)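 Read-out: herbicidal effect on each species rated on a visual scale 3 weeks after treatment. Plants were raised together from seed in flooded alluvial soil (4 cm water) at 25° C. to 30° C. and treated at one to two leaves by water-surface application of diluted emulsion.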

Setaria viridis = assay: Test Example 5: herbicidal effect by foliage application, plastic box (symbol G); conditions: 320 g/ha, 3 weeks after application
Method in brief: (§3)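 Visual herbicidal score, taken three weeks post-application, of seedlings sprayed on the foliage with water-diluted emulsion at a predetermined amount; plants were 14 days old, greenhouse-raised at 25° C. to 30° C.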

Alopecurus myosuroides = assay: Test Example 5: herbicidal effect by foliage application, plastic box (symbol J); conditions: 320 g/ha, 3 weeks after application
Method in brief: as §3

Amaranthus retroflexus = assay: Test Example 5: herbicidal effect by foliage application, plastic box (symbol N); conditions: 320 g/ha, 3 weeks after application
Method in brief: as §3

Avena fatua = assay: Test Example 5: herbicidal effect by foliage application, plastic box (symbol I); conditions: 320 g/ha, 3 weeks after application
Method in brief: as §3

rapeseed = assay: Test Example 5: effect on crop by foliage application, plastic box (symbol g); conditions: 320 g/ha, 3 weeks after application
Method in brief: (§4)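 Greenhouse culture at 25° C. to 30° C. followed spot-like sowing into sterilized diluvial soil, with seed covered by roughly 1.5 cm of soil.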

[2] = system: directly sowed rice plant; assay: Test Example 3: effect on crop by foliage application, Wagner pot (symbol b); conditions: application herbicide amount 320 g/ha
Method in brief: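 Wagner pot (1/10000 are), alluvial soil, submerged 0.1–0.5 cm; sown E. crus-galli var. crus-galli, L. chinensis, C. difformis, rice; greenhouse 25–30 °C.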

corn = assay: Test Example 5: effect on crop by foliage application, plastic box (symbol c); conditions: 320 g/ha, 3 weeks after application
Method in brief: as §4

Leptochloa chinensis = assay: Test Example 3: herbicidal effect by foliage application, Wagner pot (symbol D); conditions: application herbicide amount 320 g/ha
Method in brief: as §1

Stellaria media = assay: Test Example 5: herbicidal effect by foliage application, plastic box (symbol P); conditions: 320 g/ha, 3 weeks after application
Method in brief: as §3

Monochoria vaginalis [3] = assay: Test Example 1: herbicidal activity, application before weed generation in submerged conditions (symbol C); conditions: application herbicide amount 320 g/ha
Method in brief: (§5)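 0–5 visual score, 3 wk post-application. Submerged pots, alluvial soil, water 4 cm; seeds sown mixed, rice at 2.5 leaves transplanted. Emulsion diluted to predetermined dose, applied to water surface at sowing. 25–30 °C greenhouse.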

Veronica persica = assay: Test Example 5: herbicidal effect by foliage application, plastic box (symbol R); conditions: 320 g/ha, 3 weeks after application
Method in brief: as §3

Apera spica-venti = assay: Test Example 5: herbicidal effect by foliage application, plastic box (symbol L); conditions: 320 g/ha, 3 weeks after application
Method in brief: as §3

soybean = assay: Test Example 5: effect on crop by foliage application, plastic box (symbol d); conditions: 320 g/ha, 3 weeks after application
Method in brief: as §4

[4] = system: Echinochloa crus-galli var. crus-galli; assay: Test Example 5: herbicidal effect by foliage application, plastic box (symbol H); conditions: 320 g/ha, 3 weeks after application
Method in brief: as §3

Chenopodium album = assay: Test Example 5: herbicidal effect by foliage application, plastic box (symbol O); conditions: 320 g/ha, 3 weeks after application
Method in brief: as §3

Scirpus juncoides [5] = assay: Test Example 1: herbicidal activity, application before weed generation in submerged conditions (symbol B); conditions: application herbicide amount 320 g/ha
Method in brief: as §5

Scirpus juncoides [6] = assay: Test Example 2: herbicidal activity, application during weed generation in submerged conditions (symbol B); conditions: Table 23; application herbicide amount 320 g/ha; grade 0-5 by criteria of Test Example 1
Method in brief: as §2

Abutilon theophrasti = assay: Test Example 5: herbicidal effect by foliage application, plastic box (symbol M); conditions: 320 g/ha, 3 weeks after application
Method in brief: as §3

[7] = system: Echinochloa oryzacola Vasing.; assay: Test Example 2: herbicidal activity, application during weed generation in submerged conditions (symbol A); conditions: Table 23; application herbicide amount 320 g/ha; grade 0-5 by criteria of Test Example 1
Method in brief: as §2

transplanted rice plant = assay: Test Example 1: effect on crop, application before weed generation in submerged conditions (symbol a); conditions: application herbicide amount 320 g/ha
Method in brief: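 Alluvial soil pots flooded to 4 cm water, sown with Echinochloa oryzacola, Scirpus juncoides and Monochoria vaginalis, then transplanted with 2.5 leaf stage rice seedlings; pre-emergence application. Greenhouse 25° C. to 30° C.; scored 0–5 by herbicidal ratio 3 weeks after application.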

beet = assay: Test Example 5: effect on crop by foliage application, plastic box (symbol f); conditions: 320 g/ha, 3 weeks after application
Method in brief: as §4

wheat = assay: Test Example 5: effect on crop by foliage application, plastic box (symbol e); conditions: 320 g/ha, 3 weeks after application
Method in brief: as §4

Digitaria ciliaris = assay: Test Example 5: herbicidal effect by foliage application, plastic box (symbol F); conditions: 320 g/ha, 3 weeks after application
Method in brief: as §3

rice plant = assay: Test Example 5: effect on crop by foliage application, plastic box (symbol b); conditions: 320 g/ha, 3 weeks after application
Method in brief: as §4

[8] = system: Echinochloa oryzacola Vasing.; assay: Test Example 1: herbicidal activity, application before weed generation in submerged conditions (symbol A); conditions: application herbicide amount 320 g/ha
Method in brief: as §5

[9] = system: Echinochloa crus-galli var. crus-galli; assay: Test Example 3: herbicidal effect by foliage application, Wagner pot (symbol H); conditions: application herbicide amount 320 g/ha
Method in brief: as §1

Galium spurium = assay: Test Example 5: herbicidal effect by foliage application, plastic box (symbol Q); conditions: 320 g/ha, 3 weeks after application
Method in brief: as §3

Lolium multiflorum Lam. = assay: Test Example 5: herbicidal effect by foliage application, plastic box (symbol K); conditions: 320 g/ha, 3 weeks after application
Method in brief: as §3

## CON=C(C)CC1CC(OC(=O)N(C)C)=C(c2c(C)cc(-c3ccc(Cl)cc3)cc2OC)C1=O (stereo not drawn) [6-081]
Cyperus difformis
  herbicidal effect on E, grade 0-5: 0 (Herbicidal ratio of 5% or lower (almost no effect))
Monochoria vaginalis [1]
  Herbicidal effect grade, C: Monochoria vaginalis: 0 (Herbicidal ratio of 5% or lower (almost no effect))
Setaria viridis
  G: Setaria viridis, herbicidal effect (criteria of Test Example 1): 0 (Herbicidal ratio of 5% or lower (almost no effect))
Alopecurus myosuroides
  J: Alopecurus myosuroides, herbicidal effect (criteria of Test Example 1): 3 (Herbicidal ratio of 40% or higher and lower than 70%)
Amaranthus retroflexus
  N: Amaranthus retroflexus, herbicidal effect (criteria of Test Example 1): 0 (Herbicidal ratio of 5% or lower (almost no effect))
Avena fatua
  I: Avena fatua, herbicidal effect (criteria of Test Example 1): 5 (Herbicidal ratio of 90% or more (almost completely withered))
rapeseed
  g: rapeseed, effect on crop (criteria of Test Example 1): 3 (Herbicidal ratio of 40% or higher and lower than 70%)
[2]
  effect on crop b (directly sowed rice plant), grade 0-5: 0 (Herbicidal ratio of 5% or lower (almost no effect))
corn
  c: corn, effect on crop (criteria of Test Example 1): 5 (Herbicidal ratio of 90% or more (almost completely withered))
Leptochloa chinensis
  herbicidal effect on D (Leptochloa chinensis), grade 0-5: 3 (Herbicidal ratio of 40% or higher and lower than 70%)
Stellaria media
  P: Stellaria media, herbicidal effect (criteria of Test Example 1): 0 (Herbicidal ratio of 5% or lower (almost no effect))
Monochoria vaginalis [3]
  Herbicidal effect grade, C: Monochoria vaginalis: 1 (Herbicidal ratio of 5% or higher and lower than 20%)
Veronica persica
  R: Veronica persica, herbicidal effect (criteria of Test Example 1): 0 (Herbicidal ratio of 5% or lower (almost no effect))
Apera spica-venti
  L: Apera spica-venti, herbicidal effect (criteria of Test Example 1): 5 (Herbicidal ratio of 90% or more (almost completely withered))
soybean
  d: soybean, effect on crop (criteria of Test Example 1): 0 (Herbicidal ratio of 5% or lower (almost no effect))
[4]
  H: Echinochloa crus-galli var. crus-galli, herbicidal effect (criteria of Test Example 1): 4 (Herbicidal ratio of 70% or higher and lower than 90%)
Chenopodium album
  O: Chenopodium album, herbicidal effect (criteria of Test Example 1): 0 (Herbicidal ratio of 5% or lower (almost no effect))
Scirpus juncoides [5]
  Herbicidal effect grade, B: Scirpus juncoides: 0 (Herbicidal ratio of 5% or lower (almost no effect))
Scirpus juncoides [6]
  Herbicidal effect grade, B: Scirpus juncoides: 0 (Herbicidal ratio of 5% or lower (almost no effect))
Abutilon theophrasti
  M: Abutilon theophrasti, herbicidal effect (criteria of Test Example 1): 0 (Herbicidal ratio of 5% or lower (almost no effect))
[7]
  Herbicidal effect grade, A: Echinochloa oryzacola Vasing.: 1 (Herbicidal ratio of 5% or higher and lower than 20%)
Transplanted rice plant
  Effect grade on crop, a: transplanted rice plant: 3 (Herbicidal ratio of 40% or higher and lower than 70%)
beet
  f: beet, effect on crop (criteria of Test Example 1): 0 (Herbicidal ratio of 5% or lower (almost no effect))
wheat
  e: wheat, effect on crop (criteria of Test Example 1): 3 (Herbicidal ratio of 40% or higher and lower than 70%)
Digitaria ciliaris
  F: Digitaria ciliaris, herbicidal effect (criteria of Test Example 1): 4 (Herbicidal ratio of 70% or higher and lower than 90%)
Rice plant
  b: directly sowed rice plant, effect on crop (criteria of Test Example 1): 0 (Herbicidal ratio of 5% or lower (almost no effect))
[8]
  Herbicidal effect grade, A: Echinochloa oryzacola Vasing.: 5 (Herbicidal ratio of 90% or more (almost completely withered))
[9]
  herbicidal effect on H (Echinochloa crus-galli var. crus-galli), grade 0-5: 1 (Herbicidal ratio of 5% or higher and lower than 20%)
Galium spurium
  Q: Galium spurium, herbicidal effect (criteria of Test Example 1): 0 (Herbicidal ratio of 5% or lower (almost no effect))
Lolium multiflorum Lam.
  K: Lolium multiflorum Lam., herbicidal effect (criteria of Test Example 1): 4 (Herbicidal ratio of 70% or higher and lower than 90%)

## CON=C(C)CC1CC(OC(=O)N2CCOCC2)=C(c2c(C)cc(-c3ccc(Cl)cc3Cl)cc2C)C1=O (stereo not drawn) [6-090]
Cyperus difformis
  herbicidal effect on E, grade 0-5: 0 (Herbicidal ratio of 5% or lower (almost no effect))
Monochoria vaginalis [1]
  Herbicidal effect grade, C: Monochoria vaginalis: 0 (Herbicidal ratio of 5% or lower (almost no effect))
Setaria viridis
  G: Setaria viridis, herbicidal effect (criteria of Test Example 1): 5 (Herbicidal ratio of 90% or more (almost completely withered))
Alopecurus myosuroides
  J: Alopecurus myosuroides, herbicidal effect (criteria of Test Example 1): 3 (Herbicidal ratio of 40% or higher and lower than 70%)
Amaranthus retroflexus
  N: Amaranthus retroflexus, herbicidal effect (criteria of Test Example 1): 0 (Herbicidal ratio of 5% or lower (almost no effect))
Avena fatua
  I: Avena fatua, herbicidal effect (criteria of Test Example 1): 4 (Herbicidal ratio of 70% or higher and lower than 90%)
rapeseed
  g: rapeseed, effect on crop (criteria of Test Example 1): 4 (Herbicidal ratio of 70% or higher and lower than 90%)
[2]
  effect on crop b (directly sowed rice plant), grade 0-5: 0 (Herbicidal ratio of 5% or lower (almost no effect))
corn
  c: corn, effect on crop (criteria of Test Example 1): 2 (Herbicidal ratio of 20% or higher and lower than 40%)
Leptochloa chinensis
  herbicidal effect on D (Leptochloa chinensis), grade 0-5: 5 (Herbicidal ratio of 90% or more (almost completely withered))
Stellaria media
  P: Stellaria media, herbicidal effect (criteria of Test Example 1): 0 (Herbicidal ratio of 5% or lower (almost no effect))
Monochoria vaginalis [3]
  Herbicidal effect grade, C: Monochoria vaginalis: 0 (Herbicidal ratio of 5% or lower (almost no effect))
Veronica persica
  R: Veronica persica, herbicidal effect (criteria of Test Example 1): 0 (Herbicidal ratio of 5% or lower (almost no effect))
Apera spica-venti
  L: Apera spica-venti, herbicidal effect (criteria of Test Example 1): 2 (Herbicidal ratio of 20% or higher and lower than 40%)
soybean
  d: soybean, effect on crop (criteria of Test Example 1): 0 (Herbicidal ratio of 5% or lower (almost no effect))
[4]
  H: Echinochloa crus-galli var. crus-galli, herbicidal effect (criteria of Test Example 1): 4 (Herbicidal ratio of 70% or higher and lower than 90%)
Chenopodium album
  O: Chenopodium album, herbicidal effect (criteria of Test Example 1): 0 (Herbicidal ratio of 5% or lower (almost no effect))
Scirpus juncoides [5]
  Herbicidal effect grade, B: Scirpus juncoides: 0 (Herbicidal ratio of 5% or lower (almost no effect))
Scirpus juncoides [6]
  Herbicidal effect grade, B: Scirpus juncoides: 0 (Herbicidal ratio of 5% or lower (almost no effect))
Abutilon theophrasti
  M: Abutilon theophrasti, herbicidal effect (criteria of Test Example 1): 0 (Herbicidal ratio of 5% or lower (almost no effect))
[7]
  Herbicidal effect grade, A: Echinochloa oryzacola Vasing.: 3 (Herbicidal ratio of 40% or higher and lower than 70%)
Transplanted rice plant
  Effect grade on crop, a: transplanted rice plant: 0 (Herbicidal ratio of 5% or lower (almost no effect))
beet
  f: beet, effect on crop (criteria of Test Example 1): 0 (Herbicidal ratio of 5% or lower (almost no effect))
wheat
  e: wheat, effect on crop (criteria of Test Example 1): 0 (Herbicidal ratio of 5% or lower (almost no effect))
Digitaria ciliaris
  F: Digitaria ciliaris, herbicidal effect (criteria of Test Example 1): 5 (Herbicidal ratio of 90% or more (almost completely withered))
Rice plant
  b: directly sowed rice plant, effect on crop (criteria of Test Example 1): 1 (Herbicidal ratio of 5% or higher and lower than 20%)
[8]
  Herbicidal effect grade, A: Echinochloa oryzacola Vasing.: 5 (Herbicidal ratio of 90% or more (almost completely withered))
[9]
  herbicidal effect on H (Echinochloa crus-galli var. crus-galli), grade 0-5: 0 (Herbicidal ratio of 5% or lower (almost no effect))
Galium spurium
  Q: Galium spurium, herbicidal effect (criteria of Test Example 1): 0 (Herbicidal ratio of 5% or lower (almost no effect))
Lolium multiflorum Lam.
  K: Lolium multiflorum Lam., herbicidal effect (criteria of Test Example 1): 4 (Herbicidal ratio of 70% or higher and lower than 90%)
